Source: US8604038B2, “Pyrrolidine derived beta 3 adrenergic receptor agonists” (Merck Sharp & Dohme Corp., priority 2009, dated 2013)

target: T1, human β3 adrenergic receptor (Homo sapiens, UniProt P13945); test: Beta-3 agonist in vitro functional assay (cAMP production, LANCE, transfected CHO cells); type: cell-based; details: Table 3, CHO cells with cloned β3 receptor, ligands titrated 10^-12 M to 10^-5 M, read-out: Human β3 agonist functional activity
T1 construct: expressed in transfected cells; host or cells: CHO (Chinese hamster ovary) cells, stably transfected
T1 sequence (P13945 whole entry): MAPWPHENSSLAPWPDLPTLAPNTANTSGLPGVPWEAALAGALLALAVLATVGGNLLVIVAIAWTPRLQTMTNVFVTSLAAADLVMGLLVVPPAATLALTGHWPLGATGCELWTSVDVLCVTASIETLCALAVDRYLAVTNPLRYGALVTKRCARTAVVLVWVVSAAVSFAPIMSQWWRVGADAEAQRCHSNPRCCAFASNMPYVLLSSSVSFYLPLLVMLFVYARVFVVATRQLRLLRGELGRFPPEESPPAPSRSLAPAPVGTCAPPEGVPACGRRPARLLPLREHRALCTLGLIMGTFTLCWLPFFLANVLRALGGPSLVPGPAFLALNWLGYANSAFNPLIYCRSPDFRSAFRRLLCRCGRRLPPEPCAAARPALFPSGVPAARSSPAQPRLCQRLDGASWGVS
Procedure: Functional Assay: For compounds in examples 1-50, cAMP production in response to ligand is measured according to Barton, et al. (1991, Agonist-induced desensitization of D2 dopamine receptors in human Y-79 retinoblastoma cells. Mol. Pharmacol. […]:650-658) modified as follows. The cAMP production is measured using a homogenous time-resolved fluorescence resonance energy transfer immunoassay (LANCE™, Perkin Elmer) according to the manufacture's instructions. Chinese hamster ovary (CHO) cells, stably transfected with the cloned β-adrenergic receptor (β1, β2 or β3) are harvested after 3 days of subculturing. Harvesting of cells is done with Enzyme-free Dissociation Media (Specialty Media). Cells are then counted and resuspended in assay buffer (Hank's Balanced salt solution supplemented with 5 mM HEPES, […]) containing a phosphodiesterase inhibitor (IBMX, 0.6 mM). The reaction is initiated by mixing 6,000 cells in 6 μL with 6 μL Alexa Fluor labeled cAMP antibody (LANCE™ kit) which is then added to an assay well containing 12 μL of compound (diluted in assay buffer to 2× final concentration). The reaction proceeds for 30 minutes at RT and is terminated by the addition of 24 ul detection buffer (LANCE™ kit). The assay plate is then incubated for 1 h at RT and time-resolved fluorescence measured on a Perkin Elmer Envision reader or equivalent. The unknown cAMP level is determined by comparing fluorescence levels to a cAMP standard curve.
The non-selective, full agonist β-adrenergic ligand isoproterenol is used at all three receptors to determine maximal stimulation. The human β3 adrenergic receptor (AR) selective ligand (S)-N-[4-[2-[[2-hydroxy-3-(4-hydroxyphenoxy)propyl]amino]ethyl]-phenyl]-4-iodobenzenesulfonamide is used as a control in all assays. […] The EC50 is defined as the concentration of compound that gives 50% activation of its own maximum. Data are analyzed using Microsoft Excel and Graphpad Prism or an internally developed data analysis software package.
The EC50 is defined as the concentration of compound that gives 50% activation of its own maximum. Functional antagonist assays are performed similar to described above; however, unknown ligands are titrated at β-adrenergic receptor subtypes 1 and 2 at a final concentration in the assay of 10^-12 M to 10^-5 M in the presence of 10^-9 M full agonist β-adrenergic ligand isoproterenol. The EC50 is defined as the concentration of compound that gives 50% inhibition of the full agonist response. Data are analyzed using Microsoft Excel and Graphpad Prism or an internally developed data analysis software package.

Structure (SMILES) | EC50 [nM]
Cc1ccc(OCCN(C)C(=O)c2ccc(C[C@@H]3CC[C@H]([C@H](O)c4ccccc4)N3)cc2)cc1 [Example 120] | 1000 to 3000
CN(Cc1ncc(Cl)cn1)C(=O)c1ccc(C[C@@H]2CC[C@H]([C@H](O)c3ccccc3)N2)cc1 [Example 125] | 100 to 999
Cc1cccn2cc(CN(C)C(=O)c3ccc(C[C@@H]4CC[C@H]([C@H](O)c5ccccc5)N4)cc3)nc12 [Example 126] | 100 to 999
CN(CC1CCCO1)C(=O)c1ccc(C[C@@H]2CC[C@H]([C@H](O)c3ccccc3)N2)cc1 (stereo partly drawn) [Example 127] | 100 to 999
CC(c1cccnc1)N(C)C(=O)c1ccc(C[C@@H]2CC[C@H]([C@H](O)c3ccccc3)N2)cc1 (stereo partly drawn) [Example 128] | 1 to 9.9
CCN(Cc1cccnn1)C(=O)c1ccc(C[C@@H]2CC[C@H]([C@H](O)c3ccccc3)N2)cc1 [Example 129] | 100 to 999
O=C(c1ccc(C[C@@H]2CC[C@H]([C@H](O)c3ccccc3)N2)cc1)N(Cc1cccnn1)C1CC1 [Example 130] | 100 to 999
COCCCN(Cc1cccnn1)C(=O)c1ccc(C[C@@H]2CC[C@H]([C@H](O)c3ccccc3)N2)cc1 [Example 131] | 100 to 999
CN(Cc1csc(N)n1)C(=O)c1ccc(C[C@@H]2CC[C@H]([C@H](O)c3ccccc3)N2)cc1 [Example 132] | 100 to 999

More lines, now with the values ahead:

EC50 [nM] | Structure (SMILES)
1 to 9.9 | CN(Cc1nc2ccsc2c(=O)[nH]1)C(=O)c1ccc(C[C@@H]2CC[C@H]([C@H](O)c3ccccc3)N2)cc1 [Example 114]
100 to 999 | CCN(CCN)C(=O)c1ccc(C[C@@H]2CC[C@H]([C@H](O)c3ccccc3)N2)cc1 [Example 115]
10 to 99.9 | Cc1cnc(CN(CC(C)C)C(=O)c2ccc(C[C@@H]3CC[C@H]([C@H](O)c4ccccc4)N3)cc2)s1 [Example 116]
100 to 999 | CN(C(=O)c1ccc(C[C@@H]2CC[C@H]([C@H](O)c3ccccc3)N2)cc1)C1CCOC1 (stereo partly drawn) [Example 117]
100 to 999 | CN(Cc1nccs1)C(=O)c1ccc(C[C@@H]2CC[C@H]([C@H](O)c3ccccc3)N2)cc1 [Example 118]
100 to 999 | CN(CCC1CCCCO1)C(=O)c1ccc(C[C@@H]2CC[C@H]([C@H](O)c3ccccc3)N2)cc1 (stereo partly drawn) [Example 119]
100 to 999 | CCN(Cc1ccccn1)C(=O)c1ccc(C[C@@H]2CC[C@H]([C@H](O)c3ccccc3)N2)cc1 [Example 121]
100 to 999 | Cc1csc(CN(C)C(=O)c2ccc(C[C@@H]3CC[C@H]([C@H](O)c4ccccc4)N3)cc2)n1 [Example 123]
10 to 99.9 | CN(Cc1cccnc1Cl)C(=O)c1ccc(C[C@@H]2CC[C@H]([C@H](O)c3ccccc3)N2)cc1 [Example 124]

same assay, conditions: given as a range, CHO cells with cloned β3 receptor, read-out: human Beta-3 agonist functional activity

EC50 [nM] | Structure (SMILES)
10 to 99.9 | CN(C)C(=O)c1ccc(C[C@@H]2CC[C@H](C(O)c3ccc(N)nc3)N2)cc1 (stereo partly drawn) [Example 133, 4-({(2S,5R)-5-[(6-aminopyridin-3-yl)(hydroxy)methyl]pyrrolidin-2-yl}methyl)-N,N-dimethylbenzamide]
10 to 99.9 | CN(CCc1ccccn1)C(=O)c1ccc(C[C@@H]2CC[C@H]([C@H](O)c3ccccc3)N2)cc1 [Example 134, 4-({(2S,5R)-5-[(R)-hydroxy(phenyl)methyl]pyrrolidin-2-yl}methyl)-N-methyl-N-[2-(pyridin-2-yl)ethyl)benzamide]
10 to 99.9 | CN(Cc1ccccc1F)C(=O)c1ccc(C[C@@H]2CC[C@H]([C@H](O)c3ccccc3)N2)cc1 [Example 135, N-(2-fluorobenzyl)-4-({(2S,5R)-5-[(R)-hydroxy(phenyl)methyl]pyrrolidin-2-yl}methyl)-N-methylbenzamide]
< 1 | CN(Cc1cccc(N)n1)C(=O)c1ccc(C[C@@H]2CC[C@H]([C@H](O)c3ccccc3)N2)cc1 [Example 136, N-[(6-aminopyridin-2-yl)methyl]-4-({(2S,5R)-5-[(R)-hydroxy(phenyl)methyl]pyrrolidin-2-yl}methyl)-N-methylbenzamide]
100 to 999 | CC(c1ccccn1)N(C)C(=O)c1ccc(CC2CC[C@H]([C@H](O)c3ccccc3)N2)cc1 (stereo partly drawn) [Example 137]

tested on: rats; test: not given; details: intravenous administration, cystometric studies; cited from earlier work

Structure (SMILES) | bladder capacity | micturition interval | residual urine volume
C[C@H](Cc1ccc2c(c1)OC(C(=O)[O-])(C(=O)[O-])O2)NC[C@H](O)c1cccc(Cl)c1.[Na+].[Na+] [CL316243] | increases bladder capacity | prolongation of micturition interval | without increasing residual urine volume

same assay, conditions: intravenous administration; cited from earlier work

Structure (SMILES) | bladder pressure
C[C@H](Cc1ccc2c(c1)OC(C(=O)[O-])(C(=O)[O-])O2)NC[C@H](O)c1cccc(Cl)c1.[Na+].[Na+] [CL316243] | reduces bladder pressure
